# Experimental data taken from PubChem BioAssay AID1431 (PCMD, 2008).
# pIC50: −log10 of the molar value. The source made the active and inactive calls. The rule behind the calls is not given here.
# Biological target: Kallikrein-5 (Homo sapiens) (UniProt Q9Y337)
# Assay: kallikrein 5 (hK5) inhibition IC50 – biochemical, 1536-well, dose response (AID 1431)
# Details: recombinant KLK5 enzyme activity, fluorogenic substrate
# Chain of Kallikrein-5 (Homo sapiens) (Q9Y337 67-293 limits assumed): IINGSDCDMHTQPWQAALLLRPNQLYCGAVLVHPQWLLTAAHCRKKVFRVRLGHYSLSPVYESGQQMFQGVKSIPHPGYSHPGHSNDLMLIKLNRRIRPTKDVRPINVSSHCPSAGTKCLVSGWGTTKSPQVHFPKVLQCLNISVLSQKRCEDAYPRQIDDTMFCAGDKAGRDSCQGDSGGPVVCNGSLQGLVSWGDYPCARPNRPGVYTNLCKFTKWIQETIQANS
Compound,IC50,pIC50
COc1ccc2cc(C3C(C#N)=C(N)OC(C)=C3C(C)=O)c(Cl)nc2c1 (stereo unspecified),> 50 µM (inactive),–
CCC(=O)N1c2ccccc2NC2=C(C(=O)CCC2)C1c1ccc(N(C)C)cc1 (stereo unspecified),> 50 µM (inactive),–
CC1=C(C(N)=O)C(c2ccccn2)n2nc(-c3ccccc3Cl)nc2N1 (stereo unspecified),> 50 µM (inactive),–
COc1ccc(C2C(C(C)=O)=C(O)C(=O)N2c2nccs2)cc1OC (stereo unspecified),–,4.59
CC(=O)c1ccc(N2C(=O)C3C(C2=O)C(C(=O)c2ccc(Cl)cc2)N2CCCC32)cc1 (stereo unspecified),> 50 µM (inactive),–
COc1ccc(N2C(=O)CC(Nc3cccc([N+](=O)[O-])c3)C2=O)cc1 (stereo unspecified),> 50 µM (inactive),–
O=C1CC(Nc2ccccc2)C(=O)N1c1ccc(N2CCOCC2)cc1 (stereo unspecified),> 50 µM (inactive),–
Cc1cc(/C(O)=C2\C(=O)C(=O)N(CCN(C)C)C2c2ccncc2)ccc1OCc1ccccc1 (stereo unspecified),> 50 µM (inactive),–
Cc1cc(N2C(=O)CC(Cc3ccc(Cl)cc3)C2=O)no1 (stereo unspecified),> 50 µM (inactive),–
CCOC(=O)C1=C(N)OC2=C(C(=O)CCC2)C12C(=O)N(CC(N)=O)c1ccccc12 (stereo unspecified),> 50 µM (inactive),–
COC(=O)c1sc(N2C(=O)C(O)=C(C(=O)c3ccc(C)o3)C2c2ccc(F)cc2)nc1C (stereo unspecified),> 50 µM (inactive),–
CCOc1cc(/C=N/Nc2nc(Nc3ccccc3)nc(N3CCCCC3)n2)ccc1OCC(=O)O,> 50 µM (inactive),–
COc1ccc(CN2C(=O)c3cccnc3C2Nc2cc(Cl)ccc2OC)cc1 (stereo unspecified),–,5.14
CCC(=O)N1CCN(CCN=CC2=C(O)CC(C)(C)CC2=O)CC1,> 50 µM (inactive),–
COC(=O)c1[nH]c(C)c(/C(O)=C2\C(=O)C(=O)N(CCN(C)C)C2c2cccc(OC)c2OC)c1C (stereo unspecified),> 50 µM (inactive),–
O=c1[nH]c(=O)n(Cc2ccco2)c(O)c1C=NCc1ccco1,> 50 µM (inactive),–
Oc1cccc(NC(=S)N=Nc2c(O)[nH]c3ccccc23)c1,> 50 µM (inactive),–
N#Cc1c(N)nc2c3c(sc(=N)c2c1N)NC(=O)CC3c1c(F)cccc1Cl (stereo unspecified),> 50 µM (inactive),–
Cc1c(-c2cccs2)[n+](=O)c2c(n1[O-])CCC2,> 50 µM (inactive),–
COC(/C=C/Nc1ccc(Br)cc1)=C(C#N)C#N,> 50 µM (inactive),–
CCOC(=O)C1CCCN(C2CC(=O)N(c3ccc(C)cc3)C2=O)C1 (stereo unspecified),> 50 µM (inactive),–
COc1ccc(N2C(N)=C(C#N)C(c3cccnc3)C3=C2CC(C)(C)CC3=O)cc1 (stereo unspecified),> 50 µM (inactive),–

Compound,IC50,pIC50
CCC/S(C)=N/S(=O)(=O)c1ccc(C)cc1 (stereo unspecified),> 50 µM (inactive),–
Cc1ccc(-c2[nH]nc3c2C(c2ccoc2)C(C#N)=C(N)O3)cc1C (stereo unspecified),> 50 µM (inactive),–
Oc1ccc2ccccc2c1C=NC12CN3CCN(CN(C3)C1)C2,> 50 µM (inactive),–
CC(C)n1c(=O)c(C=Nc2ccc(Br)cc2)c(O)n(Cc2ccco2)c1=O,> 50 µM (inactive),–
CCOC(=O)C1(C)C=C(Nc2cccc(OC)c2)C(=O)N1c1ccccc1 (stereo unspecified),> 50 µM (inactive),–
O=c1c(/C=N/O)c(Nc2ccccc2)nc2ccccn12,> 50 µM (inactive),–
Cc1cc(N/N=C/c2ccc(O)cc2)nc(NS(=O)(=O)c2ccccc2)n1,> 50 µM (inactive),–
COc1cccc(N2CCN(C3CC(=O)N(c4ccc(F)c(Cl)c4)C3=O)CC2)c1 (stereo unspecified),> 50 µM (inactive),–
O=C1CC(SCc2nc3ccccc3[nH]2)C(=O)N1c1ccc(F)cc1 (stereo unspecified),> 50 µM (inactive),–
COc1cccc(N2C(=O)CC(NNc3nc4ccccc4s3)C2=O)c1 (stereo unspecified),> 50 µM (inactive),–
COC(=O)c1cc(N2C(=O)C3C(C2=O)C2(C)C=CC3(C)O2)ccc1Cl (stereo unspecified),> 50 µM (inactive),–
CCOC(=O)C1=C(CC)Nc2ccccc2N=C1NC(=O)CCN1C(=O)C2CCCCC2C1=O (stereo unspecified),> 50 µM (inactive),–
Cc1ccc(NC2c3ncccc3C(=O)N2c2ccccc2C)cc1C (stereo unspecified),–,5.26
Cc1cc2c(C)nc(N/N=C/c3ccc([N+](=O)[O-])cc3)nc2o1,> 50 µM (inactive),–
O=C(O)c1cc(/C=N\O)ccc1OCc1ccccc1,> 50 µM (inactive),–
CC1CC(C)(C)n2c(O)c(N=NC(N)=S)c3cccc1c32 (stereo unspecified),> 50 µM (inactive),–
N#C/C(=N\O)c1nc2ccccc2s1,> 50 µM (inactive),–
CC1(C)CC(=O)CC(=NCC(=O)O)C1,> 50 µM (inactive),–
COc1ccc2c(c1)C(c1ccc([N+](=O)[O-])cc1)=NNC(c1ccco1)=N2,> 50 µM (inactive),–
Cc1ccc(Cn2c(O)c(N=NC(=S)Nc3ccccc3F)c3cc(S(=O)(=O)N4CCOCC4)ccc32)cc1,> 50 µM (inactive),–
O=C1CC(Sc2ccc(Cl)cc2)C(=O)N1c1ccc2c(c1)OCCO2 (stereo unspecified),> 50 µM (inactive),–
O=C(Nc1ccccc1)c1cccc(N2C(=O)CCC2=O)c1,> 50 µM (inactive),–

Compound,IC50,pIC50
CC1=C(C(=O)N2CCCCC2)C(c2cccs2)C2=C(CCCC2=O)N1 (stereo unspecified),> 50 µM (inactive),–
Cc1cccc(NC2SC(=O)N(c3ccccc3)C2=O)c1 (stereo unspecified),> 50 µM (inactive),–
COc1ccc(C2C(C(=O)Nc3ccccc3OC)=C(C)Nc3ncnn32)cc1 (stereo unspecified),> 50 µM (inactive),–
Cc1cc(C)n(CC2CC(=O)N(c3ccc(Cl)c(Cl)c3)C2=O)n1 (stereo unspecified),> 50 µM (inactive),–
Cc1ccccc1NC(=O)Cn1c(O)c(N=NC(=O)c2ccccc2O)c2ccccc21,> 50 µM (inactive),–
O=C(N/N=C/c1cc([N+](=O)[O-])ccc1O)c1cccc2cc[nH]c12,> 50 µM (inactive),–
O=C1C(C=NCCCN2CCOCC2)=C(O)c2ccccc21,> 50 µM (inactive),–
COc1ccc(-c2[nH]nc3c2C(c2ccsc2)C(C#N)=C(N)O3)cc1 (stereo unspecified),> 50 µM (inactive),–
CCN(CC)C(=O)c1sc(NC(=O)Cc2ccccc2)c(C#N)c1C,> 50 µM (inactive),–
CC(=O)C1=C(C)NC(C)=C(C(C)=O)C1c1cccs1,> 50 µM (inactive),–
CC1(C)CC(=O)C(C=Nc2ccccc2Sc2ccccc2)=C(O)C1,> 50 µM (inactive),–
COc1cccc(/C(O)=C2/C(=O)C(=O)N(CCCN3CCOCC3)C2c2ccncc2)c1 (stereo unspecified),–,4.33
O=C1CC(c2ccccc2)CC(O)=C1C=NCCN1CCN(C(=S)Nc2cccc(Cl)c2)CC1 (stereo unspecified),> 50 µM (inactive),–
O=C(N/N=C\c1cccc([N+](=O)[O-])c1O)C1COc2ccccc2O1 (stereo unspecified),> 50 µM (inactive),–
CC(C)(CO)N=Cc1c(O)[nH]c2ccccc12,> 50 µM (inactive),–
N#CC1=C(N)NC(SCc2ccccc2)=C(C#N)C12CCCC2,> 50 µM (inactive),–
COc1ccc(OC)c(/C=N/Nc2cc(C)nc(N3CCOCC3)n2)c1,> 50 µM (inactive),–
O=C1c2ccccc2C(=O)N1/N=C/c1ccc(O)c(O)c1O,> 50 µM (inactive),–
COc1ccc2c(c1)C(c1ccc(N3CCOCC3)cc1)=NNC(c1cccnc1)=N2,> 50 µM (inactive),–
CCOC(=O)c1ccc(N=C(c2ccccc2)c2c(O)n(C)c(=O)n(C)c2=O)cc1,> 50 µM (inactive),–
COc1ccc(Oc2ccccc2/C=N/O)cc1,> 50 µM (inactive),–
CCCC(C)C1C(C#N)=C(N)Oc2c1c(=O)oc1ccccc21 (stereo unspecified),> 50 µM (inactive),–
